Here are results for twelve compounds from publication PMC6264777, “New Catechol Derivatives of Safrole and Their Antiproliferative Activity towards Breast Cancer Cells” (Molecules, 2011).

Like-named read-outs stand apart in the source and are kept apart here. Bounds are passed on as bounds.

One data set relates to MCF-7 cells. The experiment in a line: Sulforhodamine B in vitro growth inhibition assay, MCF-7. Format: cell-based, human. The settings on record: read-out: IC50 (μM) MCF-7. The procedure: (§1) IC50 values of compounds 3-11, safrole, catechol 2 and the reference compound daunorubicin are summarized in Table 1 as the micromolar concentration that produces 50% cell growth inhibition after 72 hours of drug exposure.
(§2) The experimental cell cultures were obtained from American Type Culture Collection (Rockville, MD, USA). MCF-7, MDA-MB-231 cells were grown in DMEM-F12 medium containing 10% FCS, 100 U/mL penicillin, 100 µg/mL streptomycin and 1 mM glutamine. Cells are seeded into 96 well microtiter plates in 100 µL at plating density of 3 × 10^3 cells/well. After 24 h incubation at 37 °C (under a humidified 5% carbon dioxide to allow cell attachment) the cells were treated with different concentrations of drugs (safrole and derivatives) and incubated for 72 h under the same conditions. Stock solution of compounds was prepared in ethanol and the final concentration of this solvent was kept constant at 0.1%. Control cultures received 0.1% ethanol alone.
(§3) The sulforhodamine B assay according to the method of Skehan et al. was used with some modifications. Briefly, the cells were set up 3 × 10^3 cells per well of a 96-well, flat-bottomed 200 μL microplate. Cells were incubated at 37 °C in a humidified 5% CO2/95% air mixture and treated with the compounds at different concentrations for 72 hours. At the end of drug exposure, cells were fixed with 50% trichloroacetic acid at 4 °C (TCA final concentration 10%). After washing with destilled water, cells were stained with 0.1% sulforhodamine B (Sigma-Aldrich, St. Louis, MO, USA), dissolved in 1% acetic acid (50 µL/well) for 30 min, and subsequently washed with 1% acetic acid to remove unbound stain. Protein-bound stain was solubilized with 100 µL of 10 mM unbuffered Tris base. The cell density was determined using a […] plate reader (wavelength 540 nm). Values shown are the mean + SD three independent experiments in triplicate.

Data set [1] concerns dermal human fibroblast cells (DHF). The experiment in a line: cells. Format: cell-based. The note with it: for IC50: read-out: IC50 DHF.
Another data set relates to MDA-MB-231 cells. The data set is described as follows: Sulforhodamine B in vitro growth inhibition assay, MDA-MB-231. Format: cell-based, human. The settings on record: read-out: IC50 (μM) MDA-MB-231. The protocol: as §1, §2, §3
Another data set concerns various human cell types. The note with it: cited from earlier work.
Where [2] appears, read: 50% cell growth inhibition after 72 hours of drug exposure, SRB, mean ± SD, three independent experiments in triplicate.
The mark [3] stands for this setting: Homo sapiens, MCF7, 50% cell growth inhibition after 72 hours of drug exposure, SRB, mean ± SD, three independent experiments in triplicate.
[4] abbreviates: Homo sapiens, Fibroblast, 50% cell growth inhibition after 72 hours of drug exposure, SRB, non-tumoral cells.
The mark [5] stands for this setting: Homo sapiens, MDA-MB-231, 50% cell growth inhibition after 72 hours of drug exposure, SRB, mean ± SD, three independent experiments in triplicate.

“4-allyl-1,2-phenylene diacetate [Compound 7]”: the IC50 with MCF-7 cells (setting [2]) is above 100 µM; in data set [1] (50% cell growth inhibition after 72 hours of drug exposure, SRB, non-tumoral cells), above 100 µM; with MDA-MB-231 cells (setting [2]) it was 41.7 ± 7.4 µM.
On to `C=CCc1cc(O)c(O)cc1[N+](=O)[O-]` [Compound 2, 4-allyl-5-nitrobenzene-1,2-diol], for which the IC50 with MCF-7 cells (setting [3]) was 55 ± 7.11 µM; in data set [1] (setting [4]), above 100 µM; in the data set on MDA-MB-231 cells (setting [5]), 37.5 ± 2.65 µM.
For `C=CCc1ccc(O)c(O)c1` [Compound 3, 4-allylbenzene-1,2-diol], the IC50 is 98.4 ± 11.6 µM with MCF-7 cells (setting [3]), above 100 µM in data set [1] (setting [4]) and 40.2 ± 6.9 µM in the data set on MDA-MB-231 cells (setting [5]). Also, in data set [1], the “toxicity towards dermal human fibroblast (DHF cells)” value is given as “without toxicity”.
As for `C=CCc1ccc(OC(C)=O)c(OC(C)=O)c1` [Compound 4, 4-allyl-1,2-phenylene diacetate], the IC50 with MCF-7 cells (setting [3]) was above 100 µM; in data set [1] (setting [4]), above 100 µM; with MDA-MB-231 cells (setting [5]), 54.7 ± 6.6 µM.
With `OCCCc1ccc(O)c(O)c1` [Compound 5, 4-(3-hydroxypropyl)benzene-1,2-diol], the figures for the IC50 (in the data set with MCF-7 cells (setting [3]); in data set [1] (setting [4]); with MDA-MB-231 cells (setting [5])) were above 100 µM, above 100 µM and 54.3 ± 4.1 µM, respectively.
As for `CC(=O)OCCCc1ccc(OC(C)=O)c(OC(C)=O)c1` [Compound 6, 4-[3-(acetyloxy)propyl]-1,2-phenylene diacetate], the IC50 in the data set on MCF-7 cells (setting [3]) is 97.8 ± 12.4 µM; in data set [1] (setting [4]), above 100 µM; in the data set with MDA-MB-231 cells (setting [5]), 5.9 ± 0.8 µM.
In the same order, the values of `O=[N+]([O-])c1cc(O)c(O)cc1CCCO` [Compound 8, 4-(3-hydroxypropyl)-5-nitrobenzene-1,2-diol] are 78.2 ± 8.9 µM, above 100 µM and 57.3 ± 4.1 µM.
`CC(O)Cc1cc(O)c(O)cc1[N+](=O)[O-]` (centres unmarked) [Compound 9, 4-(2-hydroxypropyl)-5-nitrobenzene-1,2-diol]: the IC50 (with MCF-7 cells (setting [3]); in data set [1] (setting [4]); in the data set with MDA-MB-231 cells (setting [5])) was above 100 µM in each case.
`CC(=O)OCCCc1cc(OC(C)=O)c(OC(C)=O)cc1[N+](=O)[O-]` [Compound 10, 4-[3-(acetyloxy)propyl]-5-nitro-1,2-phenylene diacetate]: the IC50 is 51.3 ± 2.1 µM in the data set on MCF-7 cells (setting [3]), above 100 µM in data set [1] (setting [4]) and 33.8 ± 4.9 µM in the data set with MDA-MB-231 cells (setting [5]).
In the case of `CC(=O)OCCCc1cc(O)c(O)cc1[N+](=O)[O-]` [Compound 11, 3-(4,5-dihydroxy-2-nitrophenyl)propyl acetate], the IC50 in the data set on MCF-7 cells (setting [3]) is 63.8 ± 5.5 µM; in data set [1] (setting [4]) it was above 100 µM; with MDA-MB-231 cells (setting [5]), 27.1 ± 4.4 µM.
On the same counts, the results for `COc1cccc2c1C(=O)c1c(O)c3c(c(O)c1C2=O)C[C@@](O)(C(C)=O)C[C@@H]3O[C@H]1C[C@H](N)[C@H](O)[C@H](C)O1` [Daunorubicin, reference compound] are 0.19 ± 0.01 µM, 14.3 ± 1.85 µM and 0.38 ± 0.06 µM.
As for `C=CCc1ccc2c(c1)OCO2` [safrole, Safrole], the IC50 was above 100 µM with MCF-7 cells (Homo sapiens, MCF7, 72 h); above 100 µM in data set [1] (Homo sapiens, Fibroblast, 72 h); above 100 µM in the data set on MDA-MB-231 cells (Homo sapiens, MDA-MB-231, 72 h). Further, the “concentrations at which safrole becomes cytotoxic” value in the data set with various human cell types is 5000 to 10000 µM.
